Data set [1] is described as follows: Plasma pharmacokinetics on cycle 1 day 1. Format: in vivo. Particulars: human.
Data set [2] relates to patients with relapsed/refractory AML or MDS. Conditions: days 1–5 and 8–12 in combination with bortezomib; cited from earlier work.
Data set [3] deals with patients in the registration trial. Particulars: package insert; cited from earlier work.

This is an account of results in paper PMC10807611 (Cancer chemotherapy and pharmacology, 2023).

What is called Cmax is the highest concentration seen after dosing. As usually defined, the Tmax is the time from dosing to the highest level. A word on the AUC(0-inf): it is the area under the concentration-time curve extrapolated to infinity. Read a low AUC(0-inf) as low exposure. What is called half-life is the time in which the quantity being followed falls by half. Low values mean fast loss, high ones slow loss. As usually defined, the clearance is the volume of plasma or blood freed of the substance per unit of time.

In data set [1] (in vivo, Cmax concentrations), `C=CCn1c(=O)c2cnc(Nc3ccc(N4CCN(C)CC4)cc3)nc2n1-c1cccc(C(C)(C)O)n1` [Adavosertib, adavosertib] returned a Cmax of about 500 nM. The same compound came in with a V/F in data set [1] (in vivo, po) of 784.6 ± 204.3 L. For the same compound, in data set [1] (in vivo, po, 225 mg), the Cl/F stood at 57.0 ± 13.6 L/h and the Tmax was found to be 3 h. Also, in data set [1] (in vivo, po, 225 mg, AUCINF), the AUC(0-inf) came to 7.41 µM·h. Besides, the half-life in data set [1] (in vivo, po, 225 mg, T1/2) was 9.7 ± 1.93 h.
For the compound `O=C(/C=C/c1cccc(S(=O)(=O)Nc2ccccc2)c1)NO[C@@H]1O[C@H](C(=O)O)[C@@H](O)[C@H](O)[C@H]1O` [Belinostat glucuronide, belinostat glucuronide], in data set [1] (in vivo, iv, 800 mg/m2), the AUCINF is 396.0 ± 151.1 (6) μM·h and the T1/2 is listed as 3.51 ± 0.95 (6) h. Besides, in data set [1] (in vivo, iv, 1000 mg/m2), the AUCINF is on record as 668.6 ± 452.2 (4) μM·h and the T1/2 is recorded as 4.41 ± 1.30 (4) h.
As for `O=C(/C=C/c1cccc(S(=O)(=O)Nc2ccccc2)c1)NO` [Belinostat, belinostat], the clearance in data set [1] (plasma, iv, 800 mg/m2) was 643 mL/min. Moreover, in data set [1] (plasma, iv, 1000 mg/m2), the Tmax came to 0.4 h and the clearance is 657 mL/min. For the same compound, the “Maximum tolerated dose (MTD)” value in data set [2] is listed as 1000 mg/m^2. Besides, the “Patients with QTc prolongation, all grades” value in data set [3] is recorded as 11%.
